Activity calls are given as the source filed them.
What was measured:
[1] = target: Peroxisome proliferator-activated receptor gamma/Nuclear receptor coactivator 3 (Homo sapiens, UniProt P37231); assay: (§1) TR-FRET dose response biochemical High Throughput Screening assay for agonists of the steroid receptor coactivator 3 (SRC-3) recruitment by the peroxisome proliferator-activated receptor gamma (PPAR gamma): non-selective agonists. [Related pubchem assays: 1301 (Confirmation screen.), 1048 (Primary screen.)]; format: functional
[2] = target: Peroxisome proliferator-activated receptor gamma/Nuclear receptor coactivator 1 (Homo sapiens, UniProt P37231); assay: as §1, with “1 (SRC-1)” for “3 (SRC-3)”, “assays (depositor defined):AID1300, AID1808, AID504735, AID631]” for “assays: 1301 (Confirmation screen.), 1048 (Primary screen.)]”; format: protein assay
[3] = target: Peroxisome proliferator-activated receptor gamma/Nuclear receptor coactivator 2 (Homo sapiens, UniProt P37231); assay: TR-FRET dose response biochemical High Throughput Screening assay for agonists of the steroid receptor coactivator 2 (SRC-2) recruitment by the peroxisome proliferator-activated receptor gamma (PPAR gamma): non-selective agonists. [Related pubchem assays: 1297, 1032 ]; format: functional
[4] = target: T1, Microphthalmia-associated transcription factor (Homo sapiens, UniProt O75030); assay: TRPM1 promoter luciferase signal decrease, dose response, MITF inhibitor project, cell-based, SK-MEL-5, cherry-picked, set 3 (AID 493073); format: functional
T1 sequence (O75030 whole entry): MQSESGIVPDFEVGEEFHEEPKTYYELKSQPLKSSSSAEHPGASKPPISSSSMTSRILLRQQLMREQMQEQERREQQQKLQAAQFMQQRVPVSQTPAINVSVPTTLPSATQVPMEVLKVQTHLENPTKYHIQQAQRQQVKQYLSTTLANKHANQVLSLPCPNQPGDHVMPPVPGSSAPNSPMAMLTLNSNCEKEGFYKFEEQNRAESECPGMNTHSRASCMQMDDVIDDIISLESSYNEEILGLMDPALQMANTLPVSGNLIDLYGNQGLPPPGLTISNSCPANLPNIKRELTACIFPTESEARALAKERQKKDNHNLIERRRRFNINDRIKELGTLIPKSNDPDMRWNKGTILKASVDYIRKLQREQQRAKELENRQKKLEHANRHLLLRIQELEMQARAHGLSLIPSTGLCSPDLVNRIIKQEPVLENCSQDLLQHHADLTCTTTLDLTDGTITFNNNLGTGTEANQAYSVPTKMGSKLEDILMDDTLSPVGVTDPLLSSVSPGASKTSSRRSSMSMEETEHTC

[5] = target: T2, RNA-binding protein pos-1 (Caenorhabditis elegans, UniProt G5EF15); assay: inhibitors of POS-1/mex-3 RNA binding, dose response, biochemical, fluorescence polarization (AID 1964);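 further: purified POS-1 fused to maltose binding protein made in E. coli; potency of compounds blocking POS-1 binding to fluorescent RNA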
T2 sequence (G5EF15 whole entry): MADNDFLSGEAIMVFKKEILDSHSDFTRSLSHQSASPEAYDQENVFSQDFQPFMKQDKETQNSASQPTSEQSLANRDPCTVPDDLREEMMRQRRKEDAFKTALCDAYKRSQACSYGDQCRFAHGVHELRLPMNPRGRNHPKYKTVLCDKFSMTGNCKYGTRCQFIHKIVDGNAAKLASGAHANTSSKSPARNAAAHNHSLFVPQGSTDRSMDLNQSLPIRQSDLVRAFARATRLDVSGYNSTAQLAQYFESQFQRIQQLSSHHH

[6] = target: T3, Zinc finger protein mex-5 (Caenorhabditis elegans, UniProt Q9XUB2); assay: MEX-5/TCR-2 RNA interaction inhibitors, dose response, biochemical, C. elegans, fluorescence polarization (AID 1960)
T3 sequence (Q9XUB2 whole entry): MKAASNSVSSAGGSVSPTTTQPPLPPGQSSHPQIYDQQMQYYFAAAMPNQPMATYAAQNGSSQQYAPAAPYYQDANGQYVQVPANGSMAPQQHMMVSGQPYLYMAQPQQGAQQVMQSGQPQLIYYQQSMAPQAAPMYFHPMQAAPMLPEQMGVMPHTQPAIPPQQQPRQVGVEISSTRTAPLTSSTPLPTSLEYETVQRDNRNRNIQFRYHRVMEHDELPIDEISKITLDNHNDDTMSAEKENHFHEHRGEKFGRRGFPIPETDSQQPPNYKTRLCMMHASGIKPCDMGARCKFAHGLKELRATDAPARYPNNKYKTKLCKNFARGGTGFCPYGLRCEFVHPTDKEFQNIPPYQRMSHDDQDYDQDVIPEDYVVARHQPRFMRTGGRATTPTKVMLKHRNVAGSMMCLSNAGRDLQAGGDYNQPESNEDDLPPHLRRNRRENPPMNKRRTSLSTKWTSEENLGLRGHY

Protein RecA = target: T4, Protein RecA (Mycobacterium tuberculosis, UniProt P9WHJ3); assay: Fluorescence Cell-Free Homogeneous Dose Retest to Identify Inhibitors of RecA-Intein Splicing Activity. [Related pubchem assays (depositor defined):AID2097, AID2223, AID489010, AID492950]; format: functional
T4 sequence (P9WHJ3 whole entry): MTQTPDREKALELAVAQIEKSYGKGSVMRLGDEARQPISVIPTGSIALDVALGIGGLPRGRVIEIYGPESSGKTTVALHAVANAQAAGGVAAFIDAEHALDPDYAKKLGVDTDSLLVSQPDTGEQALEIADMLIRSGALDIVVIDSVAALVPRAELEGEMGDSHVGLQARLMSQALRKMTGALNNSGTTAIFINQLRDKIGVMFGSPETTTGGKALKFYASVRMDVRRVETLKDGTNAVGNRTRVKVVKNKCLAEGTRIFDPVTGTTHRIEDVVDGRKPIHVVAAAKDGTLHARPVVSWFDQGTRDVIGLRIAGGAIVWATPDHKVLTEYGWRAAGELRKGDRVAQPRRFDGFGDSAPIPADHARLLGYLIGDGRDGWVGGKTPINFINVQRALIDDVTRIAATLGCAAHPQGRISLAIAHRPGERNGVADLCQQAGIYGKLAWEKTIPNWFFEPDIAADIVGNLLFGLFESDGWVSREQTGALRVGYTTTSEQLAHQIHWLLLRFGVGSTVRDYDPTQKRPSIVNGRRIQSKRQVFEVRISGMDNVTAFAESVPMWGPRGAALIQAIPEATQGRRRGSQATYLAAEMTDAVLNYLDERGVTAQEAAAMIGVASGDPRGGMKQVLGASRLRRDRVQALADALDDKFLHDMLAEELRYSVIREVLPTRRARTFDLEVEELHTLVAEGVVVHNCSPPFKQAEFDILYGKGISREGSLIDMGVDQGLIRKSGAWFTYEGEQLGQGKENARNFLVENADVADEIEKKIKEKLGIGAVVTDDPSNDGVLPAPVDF

[7] = target: T5, Replicative DNA helicase DnaB (Mycobacterium tuberculosis, UniProt P9WMR3); assay: DnaB intein splicing inhibitors, dose response, biochemical, cell-free fluorescence (AID 449749); format: functional
T5 sequence (P9WMR3 whole entry): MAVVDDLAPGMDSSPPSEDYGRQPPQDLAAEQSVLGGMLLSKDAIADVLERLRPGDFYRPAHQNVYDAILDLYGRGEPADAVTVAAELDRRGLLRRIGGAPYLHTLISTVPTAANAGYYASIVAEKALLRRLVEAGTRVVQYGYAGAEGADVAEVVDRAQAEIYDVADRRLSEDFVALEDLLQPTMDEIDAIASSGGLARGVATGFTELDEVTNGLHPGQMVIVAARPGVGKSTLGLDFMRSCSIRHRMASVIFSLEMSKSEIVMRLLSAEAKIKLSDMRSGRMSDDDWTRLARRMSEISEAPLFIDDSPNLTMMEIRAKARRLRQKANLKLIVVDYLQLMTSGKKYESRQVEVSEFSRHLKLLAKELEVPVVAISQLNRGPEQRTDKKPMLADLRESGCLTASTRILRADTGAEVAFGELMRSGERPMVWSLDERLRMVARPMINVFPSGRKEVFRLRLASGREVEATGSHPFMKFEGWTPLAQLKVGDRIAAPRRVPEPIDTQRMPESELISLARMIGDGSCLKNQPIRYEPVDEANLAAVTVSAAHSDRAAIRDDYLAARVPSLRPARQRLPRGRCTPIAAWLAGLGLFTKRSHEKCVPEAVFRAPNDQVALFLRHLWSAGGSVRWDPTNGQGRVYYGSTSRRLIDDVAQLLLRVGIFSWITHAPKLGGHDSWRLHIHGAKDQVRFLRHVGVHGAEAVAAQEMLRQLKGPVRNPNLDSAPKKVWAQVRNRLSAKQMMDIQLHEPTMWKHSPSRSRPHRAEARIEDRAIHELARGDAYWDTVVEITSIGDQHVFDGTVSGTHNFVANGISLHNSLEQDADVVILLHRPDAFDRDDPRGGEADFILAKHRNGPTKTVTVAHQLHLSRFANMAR

Vero = Vero cell cytotoxicity, cytotoxicity control for flavivirus capping enzyme inhibitors (AID 588742); format: functional; details: Chlorocebus sabaeus
Large T antigen = Large T antigen (Simian virus 40, UniProt P03070); format: functional, Betapolyomavirus macacae;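 further: Confirmatory-stage PubChem screen for compounds that inhibit SV40 T antigen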
Cysteine protease ATG4B = target: T6, Cysteine protease ATG4B (Homo sapiens, UniProt Q9Y4P1); format: functional;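 further: Fluorescence-based dose-response confirmation assay measuring inhibition of ATG4B activity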
T6 sequence (Q9Y4P1 whole entry): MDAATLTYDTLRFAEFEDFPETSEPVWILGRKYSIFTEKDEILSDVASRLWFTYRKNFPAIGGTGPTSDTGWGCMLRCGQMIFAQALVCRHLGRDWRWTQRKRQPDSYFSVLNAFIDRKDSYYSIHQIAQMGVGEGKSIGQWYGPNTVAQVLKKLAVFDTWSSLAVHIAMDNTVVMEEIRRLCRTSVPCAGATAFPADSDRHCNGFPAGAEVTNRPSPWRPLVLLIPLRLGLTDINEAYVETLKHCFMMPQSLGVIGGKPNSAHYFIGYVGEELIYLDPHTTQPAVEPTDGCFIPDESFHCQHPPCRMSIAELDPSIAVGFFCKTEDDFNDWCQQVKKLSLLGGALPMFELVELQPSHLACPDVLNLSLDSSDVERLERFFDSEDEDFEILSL

Phospholipase A2 = Phospholipase A2 (Homo sapiens, UniProt P04054); format: functional;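 further: confirmatory dose-response counterscreen on phospholipase A2, testing hits that came from an ultra-high-throughput screen for ATG4B inhibitors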
Beta-galactosidase = Beta-galactosidase (Escherichia coli, UniProt Q8VNN2); assay: beta-galactosidase enzyme inhibitors and activators, dose response, artefact control for CCR6 antagonist project, biochemical, E. coli enzyme, set 3 (AID 504712); format: functional
[8] = target: T7, Ubiquitin-conjugating enzyme E2 N (Homo sapiens, UniProt P61088); format: functional;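 further: Dose-response confirmation in a TR-FRET assay detecting UBC13-driven polyubiquitin chain formation, inhibition measured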
T7 sequence (P61088 whole entry): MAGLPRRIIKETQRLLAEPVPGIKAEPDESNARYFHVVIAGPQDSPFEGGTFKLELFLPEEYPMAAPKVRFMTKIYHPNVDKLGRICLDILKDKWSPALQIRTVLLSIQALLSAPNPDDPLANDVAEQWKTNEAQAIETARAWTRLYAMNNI

[9] = target: T8, DNA repair protein RAD52 homolog (Homo sapiens, UniProt P43351); format: functional, biochemical
T8 sequence (P43351 whole entry): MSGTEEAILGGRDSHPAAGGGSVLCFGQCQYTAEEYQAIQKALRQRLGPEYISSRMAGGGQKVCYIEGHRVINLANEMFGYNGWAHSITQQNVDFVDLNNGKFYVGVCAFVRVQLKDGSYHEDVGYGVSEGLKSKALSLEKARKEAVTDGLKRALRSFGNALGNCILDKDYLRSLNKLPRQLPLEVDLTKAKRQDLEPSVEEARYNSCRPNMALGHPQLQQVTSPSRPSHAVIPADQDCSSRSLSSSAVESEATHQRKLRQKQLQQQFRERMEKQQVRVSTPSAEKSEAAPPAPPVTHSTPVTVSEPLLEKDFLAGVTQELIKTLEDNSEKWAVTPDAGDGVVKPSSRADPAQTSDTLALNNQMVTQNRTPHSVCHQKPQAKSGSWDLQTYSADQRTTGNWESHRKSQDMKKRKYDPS

Sequence of Peroxisome proliferator-activated receptor gamma/Nuclear receptor coactivator 3 (P37231 whole entry): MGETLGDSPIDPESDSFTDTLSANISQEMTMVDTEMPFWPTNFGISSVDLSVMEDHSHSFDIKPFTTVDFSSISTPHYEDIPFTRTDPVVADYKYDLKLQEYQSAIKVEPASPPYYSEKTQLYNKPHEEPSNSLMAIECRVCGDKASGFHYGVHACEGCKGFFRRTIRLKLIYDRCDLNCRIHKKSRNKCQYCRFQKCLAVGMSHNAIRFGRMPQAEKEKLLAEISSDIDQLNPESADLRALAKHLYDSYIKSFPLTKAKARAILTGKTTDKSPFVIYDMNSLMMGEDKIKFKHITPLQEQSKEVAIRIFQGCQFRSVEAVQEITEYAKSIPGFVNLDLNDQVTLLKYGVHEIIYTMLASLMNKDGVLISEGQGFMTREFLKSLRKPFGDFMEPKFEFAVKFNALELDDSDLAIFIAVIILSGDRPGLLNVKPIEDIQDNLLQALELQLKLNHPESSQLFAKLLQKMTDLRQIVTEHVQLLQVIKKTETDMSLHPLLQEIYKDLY
Sequence of Peroxisome proliferator-activated receptor gamma/Nuclear receptor coactivator 3 (Q9Y6Q9 whole entry, further chain): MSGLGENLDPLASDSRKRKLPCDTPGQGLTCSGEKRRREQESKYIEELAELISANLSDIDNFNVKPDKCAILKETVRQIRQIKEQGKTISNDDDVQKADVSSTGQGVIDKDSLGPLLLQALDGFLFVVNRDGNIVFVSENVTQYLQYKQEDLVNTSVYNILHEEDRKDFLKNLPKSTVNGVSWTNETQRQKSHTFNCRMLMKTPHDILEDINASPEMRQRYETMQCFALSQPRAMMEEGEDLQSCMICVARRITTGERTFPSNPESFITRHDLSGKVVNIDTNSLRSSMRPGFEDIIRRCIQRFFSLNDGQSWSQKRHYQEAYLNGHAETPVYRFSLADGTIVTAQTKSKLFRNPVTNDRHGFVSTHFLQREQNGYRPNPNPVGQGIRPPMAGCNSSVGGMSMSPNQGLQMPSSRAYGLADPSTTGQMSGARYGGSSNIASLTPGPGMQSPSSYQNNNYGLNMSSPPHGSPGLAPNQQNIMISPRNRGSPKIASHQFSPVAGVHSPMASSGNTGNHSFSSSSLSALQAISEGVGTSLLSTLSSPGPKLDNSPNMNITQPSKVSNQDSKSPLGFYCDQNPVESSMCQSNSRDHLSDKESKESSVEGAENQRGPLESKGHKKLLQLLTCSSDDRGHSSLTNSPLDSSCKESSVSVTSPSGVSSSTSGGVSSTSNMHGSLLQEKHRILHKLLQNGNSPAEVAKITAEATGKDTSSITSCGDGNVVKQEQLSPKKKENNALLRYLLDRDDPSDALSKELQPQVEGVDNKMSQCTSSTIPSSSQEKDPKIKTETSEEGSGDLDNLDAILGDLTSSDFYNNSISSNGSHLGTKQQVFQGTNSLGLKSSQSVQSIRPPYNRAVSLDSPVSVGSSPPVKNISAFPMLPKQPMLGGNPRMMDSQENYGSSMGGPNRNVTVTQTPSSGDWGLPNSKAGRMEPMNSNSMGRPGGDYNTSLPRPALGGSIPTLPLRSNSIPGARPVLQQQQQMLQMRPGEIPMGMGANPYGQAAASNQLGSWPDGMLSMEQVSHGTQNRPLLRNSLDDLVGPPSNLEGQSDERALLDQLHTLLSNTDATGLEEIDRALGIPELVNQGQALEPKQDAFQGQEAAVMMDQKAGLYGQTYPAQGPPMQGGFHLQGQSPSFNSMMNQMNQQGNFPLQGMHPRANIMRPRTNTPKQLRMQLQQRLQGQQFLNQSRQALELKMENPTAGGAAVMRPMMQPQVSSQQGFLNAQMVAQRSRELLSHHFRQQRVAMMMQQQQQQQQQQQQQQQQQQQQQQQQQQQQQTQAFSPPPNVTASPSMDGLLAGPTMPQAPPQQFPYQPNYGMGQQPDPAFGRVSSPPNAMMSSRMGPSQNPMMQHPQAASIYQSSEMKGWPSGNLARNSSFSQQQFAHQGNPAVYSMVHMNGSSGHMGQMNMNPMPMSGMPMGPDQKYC
Sequence of Peroxisome proliferator-activated receptor gamma/Nuclear receptor coactivator 2 (P37231 whole entry): as the sequence (P37231 whole entry) above
Sequence of Peroxisome proliferator-activated receptor gamma/Nuclear receptor coactivator 2 (Q15596 whole entry, further chain): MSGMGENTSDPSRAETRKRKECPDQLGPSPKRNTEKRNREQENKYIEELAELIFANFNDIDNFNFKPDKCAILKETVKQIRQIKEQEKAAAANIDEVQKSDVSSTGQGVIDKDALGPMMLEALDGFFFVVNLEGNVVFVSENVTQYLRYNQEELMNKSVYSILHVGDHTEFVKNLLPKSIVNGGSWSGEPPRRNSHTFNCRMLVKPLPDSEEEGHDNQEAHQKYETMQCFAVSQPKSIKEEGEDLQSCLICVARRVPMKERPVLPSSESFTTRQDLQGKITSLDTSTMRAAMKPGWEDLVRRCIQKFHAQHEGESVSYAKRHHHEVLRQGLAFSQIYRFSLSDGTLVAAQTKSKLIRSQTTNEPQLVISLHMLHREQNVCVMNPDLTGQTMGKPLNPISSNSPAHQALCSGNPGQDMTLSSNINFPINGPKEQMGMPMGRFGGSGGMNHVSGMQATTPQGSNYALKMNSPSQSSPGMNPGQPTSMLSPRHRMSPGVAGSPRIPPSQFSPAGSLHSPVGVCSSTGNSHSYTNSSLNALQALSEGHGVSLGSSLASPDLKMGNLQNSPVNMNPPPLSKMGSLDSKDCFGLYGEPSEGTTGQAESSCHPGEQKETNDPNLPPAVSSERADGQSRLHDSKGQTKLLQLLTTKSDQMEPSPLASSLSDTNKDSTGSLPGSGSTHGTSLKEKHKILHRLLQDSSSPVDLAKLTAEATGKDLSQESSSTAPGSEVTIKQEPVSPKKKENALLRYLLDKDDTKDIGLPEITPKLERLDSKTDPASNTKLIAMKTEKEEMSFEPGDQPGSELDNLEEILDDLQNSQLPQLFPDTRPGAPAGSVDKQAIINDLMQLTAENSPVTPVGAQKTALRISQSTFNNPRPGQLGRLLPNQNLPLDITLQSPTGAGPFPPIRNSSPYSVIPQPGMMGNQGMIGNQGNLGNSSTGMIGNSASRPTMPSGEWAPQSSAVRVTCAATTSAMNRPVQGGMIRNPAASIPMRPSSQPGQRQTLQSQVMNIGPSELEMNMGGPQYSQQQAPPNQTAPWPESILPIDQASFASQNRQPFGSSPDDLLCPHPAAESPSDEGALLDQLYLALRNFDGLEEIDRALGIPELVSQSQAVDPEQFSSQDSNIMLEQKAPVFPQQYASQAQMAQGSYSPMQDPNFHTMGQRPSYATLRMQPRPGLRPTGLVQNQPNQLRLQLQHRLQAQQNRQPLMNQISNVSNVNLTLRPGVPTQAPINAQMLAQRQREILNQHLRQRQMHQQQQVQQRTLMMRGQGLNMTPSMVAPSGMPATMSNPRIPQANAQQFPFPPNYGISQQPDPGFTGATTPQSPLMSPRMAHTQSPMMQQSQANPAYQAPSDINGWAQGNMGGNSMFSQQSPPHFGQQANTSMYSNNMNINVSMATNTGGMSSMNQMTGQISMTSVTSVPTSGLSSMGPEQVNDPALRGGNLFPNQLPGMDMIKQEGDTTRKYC
Sequence of Phospholipase A2 (P04054 whole entry): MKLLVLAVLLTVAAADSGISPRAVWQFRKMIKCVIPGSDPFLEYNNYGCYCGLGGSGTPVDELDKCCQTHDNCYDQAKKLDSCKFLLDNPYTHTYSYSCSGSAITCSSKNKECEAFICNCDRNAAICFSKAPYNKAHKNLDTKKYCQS
Sequence of Large T antigen (P03070 whole entry): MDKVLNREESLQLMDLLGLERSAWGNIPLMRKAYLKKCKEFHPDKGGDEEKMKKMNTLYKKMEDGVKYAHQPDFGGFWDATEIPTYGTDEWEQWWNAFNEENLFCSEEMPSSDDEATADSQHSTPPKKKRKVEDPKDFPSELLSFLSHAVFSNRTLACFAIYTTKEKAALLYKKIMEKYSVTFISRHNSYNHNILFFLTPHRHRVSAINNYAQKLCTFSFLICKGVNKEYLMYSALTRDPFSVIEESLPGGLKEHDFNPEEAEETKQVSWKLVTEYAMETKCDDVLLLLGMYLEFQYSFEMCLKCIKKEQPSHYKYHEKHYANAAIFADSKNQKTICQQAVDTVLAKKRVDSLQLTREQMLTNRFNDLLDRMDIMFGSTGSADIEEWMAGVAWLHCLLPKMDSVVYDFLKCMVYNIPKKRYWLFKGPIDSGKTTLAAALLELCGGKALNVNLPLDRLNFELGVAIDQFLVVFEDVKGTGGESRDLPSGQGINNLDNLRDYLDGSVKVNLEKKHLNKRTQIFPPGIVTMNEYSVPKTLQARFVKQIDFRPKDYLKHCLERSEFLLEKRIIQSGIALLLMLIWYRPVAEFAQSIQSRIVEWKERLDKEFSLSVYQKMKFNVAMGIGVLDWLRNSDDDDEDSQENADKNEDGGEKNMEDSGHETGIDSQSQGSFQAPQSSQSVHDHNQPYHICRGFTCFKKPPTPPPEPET

SMILES	EC50 [1]	EC50 [2]	EC50 [3]	AC50 [4]	also measured
CN=C(S)N1N=C(c2ccccc2)CC1c1ccc(Br)cc1 (centres undefined)	> 79.4 µM (not active)	27.8 µM (inactive)	27.5 µM (not active)	–	–
Cc1ccc(S(=O)(=O)NCC(=O)OCC(=O)c2ccc(Br)s2)cc1	> 79.4 µM (not active)	60 µM (inactive)	8.2 µM (active)	–	–
Cc1ccc(-c2cn3nc(C)c(C)nc3n2)cc1	–	–	–	5.3 µM (active)	–
COC(=O)c1ccc(-n2c(C)cc(C(=O)CCl)c2C)cc1	–	–	–	7.46 µM (active)	EC50 [5]: > 300 µM (not active); EC50 [6]: > 300 µM (not active); EC50 (Protein RecA): 22.7 µM (active); AC50 [7]: 5.18 µM (active)
CCOc1c(Br)cc(CNc2ccc(N3CCOCC3)cc2)cc1OC	–	–	–	–	CC50 (Vero): > 40 µM (active); IC50 (Large T antigen): 8.16 µM (active)
COc1cccc(C2C=C(c3ccc(Br)s3)Nc3ncnn32)c1OC (centres undefined)	> 26.5 µM (not active)	8.66 µM (active)	9.72 µM (active)	–	–
CC(=C\c1ccccc1)/C=C1/SC(=S)N(CCCC(=O)O)C1=O	–	–	–	–	IC50 (Cysteine protease ATG4B): 17.1 µM (active); IC50 (Phospholipase A2): 34.7 µM (inactive)
CCN(CC)CCNC(=S)NC(=O)c1cn(-c2ccccc2)nc1-c1ccc(OC)cc1	–	–	–	–	CC50 (Vero): > 40 µM (active); IC50 (Beta-galactosidase): > 66.6 µM (inactive)
COc1cccc(/C=C2/Sc3ccc(C(=O)NCCN4CCCC4)cc3NC2=O)c1	–	–	–	17.9 µM (active)	IC50 [8]: > 20 µM (inactive); AC50 [9]: 4.28 µM (active)

Reference: ChEMBL document CHEMBL1201862, “PubChem BioAssay data set” (2004)
